Results: patent US20240423207A1, “PICOLINAMIDE COMPOUNDS WITH FUNGICIDAL ACTIVITY” (CORTEVA AGRISCIENCE LLC, priority 2014, published 2024)
Like-named read-outs stand apart in the source and are kept apart here.

Experiments:
[1] = system: Mycosphaerella graminicola; Anamorph: Septoria tritici; experiment: Leaf Blotch of Wheat (SEPTTR) fungicidal activity on wheat seedlings; type: in vivo; conditions: Zymoseptoria tritici; for pest or weed control at 121.5 g/ha: Low Volume, 121.5 g/H; for pest or weed control at 100 ppm: High Volume
Outline: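 Compounds in acetone were diluted with nine volumes of water containing 110 ppm Triton X-100, or as EC formulations with 0.1% Trycol 5941 for track spray. They were sprayed on first-leaf Yuma wheat seedlings inoculated with S. tritici before or after treatment. Plants spent 1 day dark and 2–3 days lit at 100% RH, 20 °C. Severity (0–100%) was scored once untreated plants were fully diseased; control was computed relative to untreated plants.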

[2] = system: Puccinia triticina; Synonym: Puccinia recondita f sp. tritici; experiment: Wheat Brown Rust (PUCCRT) fungicidal activity on wheat seedlings; type: in vivo; conditions: for pest or weed control at 121.5 g/ha: Low Volume, 121.5 g/H; for pest or weed control at 100 ppm: High Volume
Outline: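 Yuma wheat seedlings (first leaf emerged) were sprayed to run-off with compound in acetone/water 1:9 (110 ppm Triton X-100), and P. triticina spores were inoculated before or after treatment. Plants were kept overnight in a 22 °C dark dew room at 100% RH, then moved to a 24 °C greenhouse; % control was based on first-leaf severity (0–100%) versus untreated plants.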

[3] = 24 h, 1 Day Protectant, read-out: SEPTTR 1DP disease control
[4] = 72 h, 3 Day Curative, read-out: SEPTTR 3DC disease control
[5] = 24 h, 1 Day Protectant, read-out: PUCCRT 1DP disease control
[6] = 72 h, 3 Day Curative, read-out: PUCCRT 3DC disease control

Compound | pest or weed control at 121.5 g/ha [1, 3] [%] | pest or weed control at 121.5 g/ha [1, 4] [%] | melting point [°C] | pest or weed control at 121.5 g/ha [2, 5] [%] | pest or weed control at 121.5 g/ha [2, 6] [%] | pest or weed control at 100 ppm [1, 3] [%] | pest or weed control at 100 ppm [1, 4] [%] | pest or weed control at 100 ppm [2, 5] [%] | pest or weed control at 100 ppm [2, 6] [%]
COc1ccnc(C(=O)N[C@@H](C)C(=O)O[C@@H](C)C(c2ccc(F)cc2)c2ccc(F)cc2)c1OC(=O)C(C)(C)C [Cmpd 207] | > 80 | > 80 | 52 to 65 | – | – | – | – | – | –
COc1ccnc(C(=O)N[C@@H](C)C(=O)O[C@@H](C)C(c2ccc(C)c(F)c2)c2ccc(C)c(F)c2)c1OCOC(C)=O [Cmpd 194] | > 80 | > 80 | – | > 80 | < 80 | – | – | – | –
CC(=O)OCOc1cccnc1C(=O)N[C@@H](C)C(=O)O[C@@H](C)C(c1ccc(F)cc1)c1ccc(F)cc1 [Cmpd 178] | > 80 | > 80 | – | < 80 | – | – | – | – | –
COc1ccc(C(c2ccc(OC)cc2)[C@H](C)OC(=O)[C@H](C)NC(=O)c2nccc(OC)c2O)cc1 [Cmpd 98] | – | – | – | – | – | > 80 | > 80 | > 80 | > 80
C#Cc1ccc(C(c2ccc(C#C)cc2)[C@H](C)OC(=O)[C@H](C)NC(=O)c2nccc(OC)c2O)cc1 [Cmpd 123] | – | – | – | – | – | < 80 | > 80 | < 80 | –
CCOCC(=O)OCOc1c(OC)ccnc1C(=O)N[C@@H](C)C(=O)O[C@@H](C)C(c1ccc(F)cc1)c1ccc(F)cc1 [Cmpd 212] | > 80 | > 80 | – | > 80 | > 80 | – | – | – | –
COc1ccnc(C(=O)N[C@@H](C)C(=O)O[C@@H](C)C(c2ccc(C)cc2)c2ccc(C)cc2)c1OC(C)=O [Cmpd 167] | > 80 | > 80 | – | > 80 | > 80 | – | – | – | –
COc1ccnc(C(=O)N[C@@H](C)C(=O)O[C@@H](C)C(F)(c2ccccc2)c2ccccc2)c1OC(C)=O [Cmpd 152] | > 80 | > 80 | – | < 80 | < 80 | – | – | – | –
CC[C@H](NC(=O)c1nccc(OC)c1OC(C)=O)C(=O)O[C@@H](C)C(c1ccc(F)cc1)c1ccc(F)cc1 [Cmpd 188] | > 80 | > 80 | – | > 80 | < 80 | – | – | – | –
COc1ccnc(C(=O)N[C@@H](C)C(=O)O[C@@H](C)C(c2ccc(F)c(C)c2)c2ccc(F)c(C)c2)c1OCOC(C)=O [Cmpd 220] | > 80 | > 80 | – | > 80 | < 80 | – | – | – | –
C#Cc1ccc(C(c2ccc(C#C)cc2)[C@H](C)OC(=O)[C@H](C)NC(=O)c2nccc(OC)c2OCOC(C)=O)cc1 [Cmpd 197] | > 80 | > 80 | – | > 80 | > 80 | – | – | – | –
COc1ccnc(C(=O)N[C@@H](C)C(=O)O[C@@H](C)C(c2cccc(F)c2)c2cccc(F)c2)c1O [Cmpd 99] | – | – | – | – | – | > 80 | > 80 | > 80 | < 80
COc1ccnc(C(=O)N[C@@H](C)C(=O)O[C@@H](C)C(c2ccc(Br)cc2)c2ccc(Br)cc2)c1O [Cmpd 103] | – | – | – | – | – | > 80 | > 80 | > 80 | < 80
CCOc1ccnc(C(=O)N[C@@H](C)C(=O)O[C@@H](C)C(c2ccc(F)cc2)c2ccc(F)cc2)c1OCOC(C)=O [Cmpd 179] | > 80 | > 80 | – | < 80 | – | – | – | – | –
COc1ccnc(C(=O)N[C@@H](C)C(=O)OC(C)C2c3ccccc3-c3ccccc32)c1OCOC(C)=O (some centres unmarked) [Cmpd 163] | < 80 | > 80 | – | < 80 | – | – | – | – | –
COc1ccnc(C(=O)N[C@@H](C)C(=O)O[C@@H](C)C(c2ccc(C)cc2)c2ccc(C)cc2)c1O [Cmpd 105] | – | – | – | – | – | > 80 | > 80 | > 80 | > 80
COc1ccnc(C(=O)N[C@@H](C)C(=O)O[C@@H](C)C(O)(c2ccc(Cl)c(Cl)c2)c2ccc(Cl)c(Cl)c2)c1O [Cmpd 127] | – | – | – | – | – | < 80 | – | < 80 | –
COc1ccnc(C(=O)N[C@@H](CC(C)C)C(=O)O[C@@H](C)C(c2ccc(F)cc2)c2ccc(F)cc2)c1O [Cmpd 116] | – | – | – | – | – | < 80 | < 80 | < 80 | –
CCc1ccc(C(c2ccc(CC)cc2)[C@H](C)OC(=O)[C@H](C)NC(=O)c2nccc(OC)c2O)cc1 [Cmpd 124] | – | – | – | – | – | > 80 | > 80 | > 80 | > 80
